Experimental data from US12527797B2, “Isochromene derivatives as phosphoinositide 3-kinases inhibitors” (CHIESI FARMACEUTICI S.P.A., priority 2019, dated 2026).
Read-outs that look alike come from different tables or passages of the source.

Legend:
PI3Kα = molecular target: T1, PI3Kα (Homo sapiens, UniProt P42336); conditions: cell free assay; reproduced from WO2015091685; read-out: PI3K alpha inhibition; cited from earlier work
T1 construct: purchased Millipore Ltd (Billerica, MA)

PI3Kβ = molecular target: T2, PI3Kβ (Homo sapiens, UniProt P42338); conditions: cell free assay; reproduced from WO2015091685; read-out: PI3K beta inhibition; cited from earlier work
T2 construct: purchased Millipore Ltd (Billerica, MA)

PI3Kδ [1] = molecular target: T3, PI3Kδ (Homo sapiens, UniProt O00329); conditions: cell free assay; reproduced from WO2015091685; read-out: PI3K delta inhibition; cited from earlier work
T3 construct: purchased Millipore Ltd (Billerica, MA)

PI3Kγ = molecular target: T4, PI3Kγ (Homo sapiens, UniProt P48736); conditions: cell free assay; reproduced from WO2015091685; read-out: PI3K gamma inhibition; cited from earlier work
T4 construct: purchased Millipore Ltd (Billerica, MA)

PI3Kδ [2] = molecular target: T3, PI3Kδ; assay: PI3K enzyme inhibitory activity in the cell free assay (ADP-Glo Kinase Assay); format: biochemical; conditions: cell free enzymatic assay; for IC50: ATP 80 μM, read-out: Enzymatic Delta IC50; for Ki: read-out: Enzymatic Delta Ki
[3] = tested on: PI3Kδ-AKT pathway endogenously expressed on THP-1 cells; assay: PI3Kδ enzyme inhibitory activity in the THP-1 assay (M-CSF stimulated pAKT, HTRF); format: cell-based; conditions: for IC50: Homo sapiens, THP-1 cells, M-CSF 2.5 ng/mL, pAKT Ser473, read-out: THP-1 IC50 nM Cellular; for Delta cell drop-off (Cellular/enzymatic activity = THP-1 IC50 nM/Delta Ki nM): ratio THP-1 IC50 / Delta Ki
[4] = tested on: Ovalbumin (OVA) induced lung eosinophilia; assay: Rat model of ovalbumin (OVA) induced lung eosinophilia (WET administration, saline suspension i.t.); format: in vivo, Brown Norway rats
Lung retention = conditions: reason why not tested in OVA model
[5] = administered 12 h before OVA challenge, 0.1 μmol/kg (ED80) for compounds of the invention

T3 sequence (O00329 whole entry): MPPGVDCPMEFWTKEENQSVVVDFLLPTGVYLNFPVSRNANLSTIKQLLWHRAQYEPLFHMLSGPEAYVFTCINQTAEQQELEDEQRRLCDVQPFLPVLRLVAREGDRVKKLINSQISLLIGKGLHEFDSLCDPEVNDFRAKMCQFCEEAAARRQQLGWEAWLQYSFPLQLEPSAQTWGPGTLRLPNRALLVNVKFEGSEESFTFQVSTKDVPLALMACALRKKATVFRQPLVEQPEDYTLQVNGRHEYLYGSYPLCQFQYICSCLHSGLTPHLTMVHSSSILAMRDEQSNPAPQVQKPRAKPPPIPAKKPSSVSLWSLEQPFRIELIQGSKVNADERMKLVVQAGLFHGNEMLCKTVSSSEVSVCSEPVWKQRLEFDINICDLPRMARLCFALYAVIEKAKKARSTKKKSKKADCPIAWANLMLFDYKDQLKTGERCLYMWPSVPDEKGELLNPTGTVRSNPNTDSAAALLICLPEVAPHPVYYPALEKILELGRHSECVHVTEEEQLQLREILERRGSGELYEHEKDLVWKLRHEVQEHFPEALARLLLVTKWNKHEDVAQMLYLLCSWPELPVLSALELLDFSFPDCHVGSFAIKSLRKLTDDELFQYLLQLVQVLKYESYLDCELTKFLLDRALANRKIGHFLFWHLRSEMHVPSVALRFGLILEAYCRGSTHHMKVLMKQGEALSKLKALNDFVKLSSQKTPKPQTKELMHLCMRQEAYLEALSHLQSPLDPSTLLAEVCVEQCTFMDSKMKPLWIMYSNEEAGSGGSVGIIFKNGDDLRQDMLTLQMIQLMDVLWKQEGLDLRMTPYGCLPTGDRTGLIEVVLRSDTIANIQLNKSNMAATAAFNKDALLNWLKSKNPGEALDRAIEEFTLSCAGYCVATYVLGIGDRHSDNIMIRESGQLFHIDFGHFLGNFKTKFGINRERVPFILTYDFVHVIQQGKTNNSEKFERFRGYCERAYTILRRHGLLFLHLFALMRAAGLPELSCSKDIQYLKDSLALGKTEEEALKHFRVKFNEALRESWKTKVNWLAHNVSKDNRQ
T3 sequence (P27986 whole entry partner): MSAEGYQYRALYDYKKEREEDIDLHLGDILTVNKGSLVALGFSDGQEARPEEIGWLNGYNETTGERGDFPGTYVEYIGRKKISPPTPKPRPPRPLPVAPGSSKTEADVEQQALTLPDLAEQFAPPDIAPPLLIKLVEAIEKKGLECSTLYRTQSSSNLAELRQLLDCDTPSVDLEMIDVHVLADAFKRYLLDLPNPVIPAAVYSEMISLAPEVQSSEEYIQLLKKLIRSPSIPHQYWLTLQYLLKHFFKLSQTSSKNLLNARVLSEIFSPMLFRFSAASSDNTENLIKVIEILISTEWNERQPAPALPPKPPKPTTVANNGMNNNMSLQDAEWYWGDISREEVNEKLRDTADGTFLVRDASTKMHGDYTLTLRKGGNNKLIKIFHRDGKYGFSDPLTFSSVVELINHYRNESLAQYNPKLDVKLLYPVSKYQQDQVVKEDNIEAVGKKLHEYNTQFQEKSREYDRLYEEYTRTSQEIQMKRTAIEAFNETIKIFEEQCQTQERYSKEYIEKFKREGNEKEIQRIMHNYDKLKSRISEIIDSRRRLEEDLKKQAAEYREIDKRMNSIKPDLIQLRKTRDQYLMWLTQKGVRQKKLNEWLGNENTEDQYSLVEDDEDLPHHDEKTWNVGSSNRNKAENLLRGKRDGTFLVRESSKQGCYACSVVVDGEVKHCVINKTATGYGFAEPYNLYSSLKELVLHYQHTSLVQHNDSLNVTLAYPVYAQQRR
T2 sequence (P42338 whole entry): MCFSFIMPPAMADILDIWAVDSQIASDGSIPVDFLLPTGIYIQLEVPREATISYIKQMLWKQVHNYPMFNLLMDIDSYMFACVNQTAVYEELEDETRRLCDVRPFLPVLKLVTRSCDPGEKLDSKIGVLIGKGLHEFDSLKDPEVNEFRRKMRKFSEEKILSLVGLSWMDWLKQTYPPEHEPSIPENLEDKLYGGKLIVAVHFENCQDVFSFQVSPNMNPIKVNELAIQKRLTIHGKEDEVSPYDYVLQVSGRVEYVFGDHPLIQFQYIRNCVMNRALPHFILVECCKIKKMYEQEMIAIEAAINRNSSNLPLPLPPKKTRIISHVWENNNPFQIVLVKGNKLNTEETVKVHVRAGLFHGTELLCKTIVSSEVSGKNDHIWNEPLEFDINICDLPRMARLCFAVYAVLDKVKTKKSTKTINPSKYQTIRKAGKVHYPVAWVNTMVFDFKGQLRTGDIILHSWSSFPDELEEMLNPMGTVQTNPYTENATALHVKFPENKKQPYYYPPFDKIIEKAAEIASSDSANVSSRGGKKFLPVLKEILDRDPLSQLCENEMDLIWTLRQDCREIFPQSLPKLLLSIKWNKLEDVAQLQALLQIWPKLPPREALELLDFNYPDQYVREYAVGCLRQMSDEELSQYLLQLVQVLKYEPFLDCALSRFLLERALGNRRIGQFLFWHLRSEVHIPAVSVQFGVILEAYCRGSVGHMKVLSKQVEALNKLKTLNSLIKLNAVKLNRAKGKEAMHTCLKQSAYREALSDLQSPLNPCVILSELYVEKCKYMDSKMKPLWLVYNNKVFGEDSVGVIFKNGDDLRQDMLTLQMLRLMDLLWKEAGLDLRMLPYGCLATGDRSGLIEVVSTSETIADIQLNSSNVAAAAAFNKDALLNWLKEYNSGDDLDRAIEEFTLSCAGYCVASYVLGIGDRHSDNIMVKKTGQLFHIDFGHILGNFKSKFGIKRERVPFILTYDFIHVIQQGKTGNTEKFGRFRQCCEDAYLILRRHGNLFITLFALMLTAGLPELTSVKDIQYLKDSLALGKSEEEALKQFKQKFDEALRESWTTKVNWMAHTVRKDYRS
T1 sequence (P42336 whole entry): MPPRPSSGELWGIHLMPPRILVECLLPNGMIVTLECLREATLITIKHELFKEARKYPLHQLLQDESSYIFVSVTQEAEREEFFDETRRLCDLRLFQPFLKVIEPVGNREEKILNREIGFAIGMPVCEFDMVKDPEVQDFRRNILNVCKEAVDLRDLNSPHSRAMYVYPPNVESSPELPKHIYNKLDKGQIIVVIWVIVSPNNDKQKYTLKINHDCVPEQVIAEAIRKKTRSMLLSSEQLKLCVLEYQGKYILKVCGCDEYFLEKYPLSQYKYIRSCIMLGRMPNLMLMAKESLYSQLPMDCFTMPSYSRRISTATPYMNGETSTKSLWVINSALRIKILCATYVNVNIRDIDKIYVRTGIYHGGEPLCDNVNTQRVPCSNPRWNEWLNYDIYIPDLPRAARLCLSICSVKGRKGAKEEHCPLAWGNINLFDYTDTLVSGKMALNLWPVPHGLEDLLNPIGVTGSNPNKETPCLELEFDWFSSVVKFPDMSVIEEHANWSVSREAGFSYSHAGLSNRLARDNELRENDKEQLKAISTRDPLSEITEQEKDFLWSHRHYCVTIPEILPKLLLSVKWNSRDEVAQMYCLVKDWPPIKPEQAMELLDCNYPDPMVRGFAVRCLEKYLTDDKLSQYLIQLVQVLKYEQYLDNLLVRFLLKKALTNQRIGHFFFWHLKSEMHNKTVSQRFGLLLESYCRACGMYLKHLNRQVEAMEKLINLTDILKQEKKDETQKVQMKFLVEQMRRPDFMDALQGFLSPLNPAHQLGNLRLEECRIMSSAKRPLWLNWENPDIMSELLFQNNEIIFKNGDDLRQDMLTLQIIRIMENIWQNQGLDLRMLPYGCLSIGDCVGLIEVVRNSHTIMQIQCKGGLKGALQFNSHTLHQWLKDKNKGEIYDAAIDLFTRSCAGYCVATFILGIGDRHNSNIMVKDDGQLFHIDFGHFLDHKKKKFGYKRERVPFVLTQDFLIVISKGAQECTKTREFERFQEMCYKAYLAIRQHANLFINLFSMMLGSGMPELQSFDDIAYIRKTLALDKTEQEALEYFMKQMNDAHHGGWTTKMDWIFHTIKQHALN
T4 sequence (P48736 whole entry): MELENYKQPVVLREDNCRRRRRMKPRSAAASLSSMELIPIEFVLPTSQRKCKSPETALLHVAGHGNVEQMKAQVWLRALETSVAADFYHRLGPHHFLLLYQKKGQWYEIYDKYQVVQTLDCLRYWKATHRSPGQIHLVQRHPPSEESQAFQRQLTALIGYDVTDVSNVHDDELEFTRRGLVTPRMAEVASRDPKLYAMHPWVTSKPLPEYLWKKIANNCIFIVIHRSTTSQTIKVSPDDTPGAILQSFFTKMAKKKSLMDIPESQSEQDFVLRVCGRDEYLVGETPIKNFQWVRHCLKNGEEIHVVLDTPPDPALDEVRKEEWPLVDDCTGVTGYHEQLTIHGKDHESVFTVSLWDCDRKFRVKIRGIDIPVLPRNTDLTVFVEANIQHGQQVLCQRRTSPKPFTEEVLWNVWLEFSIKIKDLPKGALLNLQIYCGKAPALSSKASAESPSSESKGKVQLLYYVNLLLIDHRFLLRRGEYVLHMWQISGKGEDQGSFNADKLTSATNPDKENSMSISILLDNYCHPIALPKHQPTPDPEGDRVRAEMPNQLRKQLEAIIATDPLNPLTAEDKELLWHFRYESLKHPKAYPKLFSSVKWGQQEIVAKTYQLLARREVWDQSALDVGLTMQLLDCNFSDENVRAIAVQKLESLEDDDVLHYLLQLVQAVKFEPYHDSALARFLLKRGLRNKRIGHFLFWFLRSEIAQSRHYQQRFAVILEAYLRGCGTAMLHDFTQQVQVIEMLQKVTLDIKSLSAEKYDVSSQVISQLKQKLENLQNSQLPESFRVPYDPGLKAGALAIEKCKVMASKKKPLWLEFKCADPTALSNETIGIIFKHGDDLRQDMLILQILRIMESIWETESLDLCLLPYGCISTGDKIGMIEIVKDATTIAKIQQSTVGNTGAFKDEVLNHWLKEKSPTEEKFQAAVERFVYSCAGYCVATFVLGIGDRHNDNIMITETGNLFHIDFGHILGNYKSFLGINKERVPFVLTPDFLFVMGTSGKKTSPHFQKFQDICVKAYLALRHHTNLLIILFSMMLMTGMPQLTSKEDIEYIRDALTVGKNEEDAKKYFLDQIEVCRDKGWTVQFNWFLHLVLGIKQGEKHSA

| IC50 (PI3Kδ [2]) [nM] | Ki (PI3Kδ [2]) [nM] | IC50 [3] [nM] | Delta cell drop-off (Cellular/enzymatic activity = THP-1 IC50 nM/Delta Ki nM) [3] | Structure (SMILES) | also measured |
| --- | --- | --- | --- | --- | --- |
|  |  |  |  | CC(c1oc(=O)c2ccccc2c1-c1cccc(CN2CCN(C)CC2)c1)n1nc(-c2cc(O)cc(F)c2)c2c(N)ncnc21 (racemic) [Example 142, 3-(1-(4-amino-3-(3-fluoro-5-hydroxyphenyl)-1H-pyrazolo[3,4-d]pyrimidin-1-yl)ethyl)-4-(3-((4-methylpiperazin-1-yl)methyl)phenyl)-1H-isochromen-1-one] | IC50 (PI3Kα): > 1000 nM; IC50 (PI3Kβ): > 1000 nM; IC50 (PI3Kδ [1]): < 10 nM; IC50 (PI3Kγ): > 1000 nM |
| 2.2 | 1.1 | 1.8 | 1.6 | CC(c1oc(=O)c2ccccc2c1-c1cccc(CN2CCN(C)CC2)c1)n1nc(-c2cc(O)cc(F)c2)c2c(N)ncnc21 (single isomer, unassigned) [Comparative example 1, 3-(1-(4-amino-3-(3-fluoro-5-hydroxyphenyl)-1H-pyrazolo[3,4-d]pyrimidin-1-yl)ethyl)-4-(3-((4-methylpiperazin-1-yl)methyl)phenyl)-1H-isochromen-1-one, reference compound] | % of inhibition (eosinophil recruitment in BALF) [4, 5]: 0% (Not durable) |
|  |  | 1.6 |  | CC(c1oc(=O)c2ccccc2c1-c1ccccc1)n1nc(-c2cncc(O)c2)c2c(N)ncnc21 (single isomer, unassigned) [Comparative example 2, reference compound] | lung retention (Lung retention): Compound not even tested in OVA model for Insufficient lung retention**** |
|  |  | 1.5 |  | CC(c1oc(=O)c2ccccc2c1-c1cccc(CN(C)C)c1)n1nc(-c2cc(O)cc(F)c2)c2c(N)ncnc21 (single isomer, unassigned) [Comparative example 3, reference compound] | % of inhibition (eosinophil recruitment in BALF) ([4]; administered 2 h before OVA challenge, ns = non-significant): 34% ns*** |
|  |  | 2.8 | 3.1 | CC(c1oc(=O)c2ccccc2c1-c1cccc(CN2CCN(C)CC2)c1)n1nc(-c2cncc(O)c2)c2c(N)ncnc21 (single isomer, unassigned) [Example 1a, 3-{1-[4-Amino-3-(5-hydroxypyridin-3-yl)-1H-pyrazolo[3,4-d]pyrimidin-1-yl]ethyl}-4-{3-[(4-methylpiperazin-1-yl)methyl]phenyl}-1H-isochromen-1-one] | % of inhibition (eosinophil recruitment in BALF) [4, 5]: 55% |
|  |  | 0.6 | 1.2 | CC(c1oc(=O)c2ccccc2c1-c1cccc(CN(C)C)c1)n1nc(-c2cncc(O)c2)c2c(N)ncnc21 (single isomer, unassigned) [Example 2a, 3-(1-(4-amino-3-(5-hydroxypyridin-3-yl)-1H-pyrazolo[3,4-d]pyrimidin-1-yl)ethyl)-4-(3-((dimethylamino)methyl)phenyl)-1H-isochromen-1-one] | % of inhibition (eosinophil recruitment in BALF) [4, 5]: 57% |
| 0.3 | 0.1 | 1 | 10 | CC(c1oc(=O)c2ccccc2c1-c1cccc([C@H]2CCCN2C)c1)n1nc(-c2cncc(O)c2)c2c(N)ncnc21 (single isomer, unassigned) [Example 4a] |  |
| 0.7 | 0.4 | 3.9 | 9.7 | CC(c1oc(=O)c2ccccc2c1-c1ccc(Cl)c(CN(C)C)c1)n1nc(-c2cncc(O)c2)c2c(N)ncnc21 (stereo not drawn) [Example 3, 3-{1-[4-Amino-3-(5-hydroxypyridin-3-yl)-1H-pyrazolo[3,4-d]pyrimidin-1-yl]ethyl}-4-{4-chloro-3-[(dimethylamino)methyl]phenyl}-1H-isochromen-1-one] |  |
| 1 | 0.5 | 1.8 | 3.6 | CC(c1oc(=O)c2ccccc2c1-c1ccc(F)c(CN2CCN(C)CC2)c1)n1nc(-c2cncc(O)c2)c2c(N)ncnc21 (stereo not drawn) [Example 5, 3-{1-[4-Amino-3-(5-hydroxypyridin-3-yl)-1H-pyrazolo[3,4-d]pyrimidin-1-yl]ethyl}-4-{4-fluoro-3-[(4-methylpiperazin-1-yl)methyl]phenyl}-1H-isochromen-1-one] |  |
| 0.8 | 0.4 | 3 | 7.5 | CC(c1oc(=O)c2ccccc2c1-c1cc(F)cc(CN2CCN(C)CC2)c1)n1nc(-c2cncc(O)c2)c2c(N)ncnc21 (stereo not drawn) [Example 6, 3-(1-(4-Amino-3-(5-hydroxypyridin-3-yl)-1H-pyrazolo[3,4-d]pyrimidin-1-yl)ethyl)-4-(3-fluoro-5-((4-methylpiperazin-1-yl)methyl)phenyl)-1H-isochromen-1-one] |  |
| 1.6 | 0.8 | 3.9 | 4.9 | CC(c1cccc(-c2c(C(C)n3nc(-c4cncc(O)c4)c4c(N)ncnc43)oc(=O)c3ccccc23)c1)N(C)C (stereo not drawn) [Example 7, 3-(1-(4-Amino-3-(5-hydroxypyridin-3-yl)-1H-pyrazolo[3,4-d]pyrimidin-1-yl)ethyl)-4-(3-(1-(dimethylamino)ethyl)phenyl)-1H-isochromen-1-one] |  |
